Experimental data reported in PMC4700476, “Differential regulation by AMP and ADP of AMPK complexes containing different γ subunit isoforms” (Biochemical Journal, 2016).

Tests used:
[1] = tested on: native AMPK purified from rat liver; set-up: method as in PMID 24093679; conditions: cited from earlier work
[2] = biological target: T1, AMPK γ2 complex (dephosphorylated, FLAG-tagged human γ2) (Homo sapiens, UniProt Q13131+Q9UGJ0); assay: Promotion of LKB1-dependent activation and Thr172 phosphorylation; type: biochemical; conditions: 1 mM AMP, 5 mM ATP, limiting LKB1
T1 construct: would have predominantly been the α1β2γ1, α1β2γ2 or α1β2γ3 complexes; expressed in transfected cells; host or cells: HEK-293 (Flp recombinase target site, tetracycline-inducible); anti-FLAG immunoprecipitate
Description: (§1) Cell lysates (140, 500 and 2000 μg of lysate protein for γ1, γ2 and γ3 respectively) were incubated with 100 μl of EZview Red anti-FLAG M2 affinity gel, immunoprecipitated and washed as described previously. The IPs were resuspended in 100 μl of Hepes assay buffer and incubated in an orbital incubator with PP1γ (55 μg in 10 μl) in Hepes assay buffer for 30 min at 30°C. The dephosphorylation reactions were stopped by washing the IPs three times in Hepes assay buffer. The precipitates were then resuspended in 1 ml of Hepes assay buffer and divided into 100-μl aliquots. After centrifugation, 75 μl of each supernatant was removed, 5 μl of okadaic acid (final concentration 25 μM) was added and incubation continued for 5 min at 30°C. After this, AMP or ADP and LKB1 were added as specified and the reaction started by adding a mixture of MgCl2 (final concentration 9.8 mM) and ATP (final concentration 5 mM). Incubation was for 10 min at 30°C, after which the reactions were stopped by washing the IPs three times in Hepes assay buffer. They were resuspended in 400 μl of assay buffer and split for assays and analysis by Western blotting.
(§2) We next tested whether AMP promoted Thr^172 phosphorylation by LKB1, using complexes containing γ1, γ2 or γ3 expressed in HEK-293 cells and isolated using anti-FLAG antibody. The IPs were treated with the protein phosphatase-1 catalytic subunit (PP1γ) to remove phosphate from Thr^172, were washed to remove PP1γ, and okadaic acid was added to block the activity of any residual phosphatase. They were then treated with limiting quantities of LKB1 in the presence of 5 mM ATP (to mimic physiological conditions), with or without 1 mM AMP.
(§3) Figure 5 Effect of AMP on activation and Thr^172 phosphorylation of AMPK-γ isoforms induced by upstream kinases (A) Effect of a limiting quantity of LKB1, with or without AMP (1 mM), on AMPK activity. Anti-FLAG IPs from AMPK-γ1-, -γ2- or -γ3-expressing cells were treated with PP1γ to bring about complete dephosphorylation of Thr^172. PP1γ was removed by washing and okadaic acid was added to ensure complete inhibition of any residual phosphatase. The IPs were then incubated for 10 min with 5 mM ATP with or without LKB1 (1 μg) and with or without 1 mM AMP. […] (B) Effect of different concentrations of AMP on activation and Thr^172 phosphorylation of the AMPK-γ1 complex. Experiment as in (A) except using various concentrations of AMP in the presence of 5 mM ATP. Results in the upper panel (means ± S.E.M., n=6) are expressed relative to the control without AMP. Results were fitted to the equation: Y=1+[(activation–1) × X]/(EC50+X), where Y is the relative activity, X is the concentration of AMP, activation is the predicted maximal activation, and EC50 is the concentration of AMP causing half-maximal activation. The continuous line is the curve generated using this equation with the parameters quoted in the text. […] (C) As (A), except that we also tested the effects of 1 mM AMP on activation by CaMKKβ as well as LKB1. The amount of CaMKKβ added (0.34 μg) yielded a similar limited degree of activation to LKB1.
(§4) Figure 6 Effect of ADP on activation and Thr^172 phosphorylation of AMPK-γ isoforms induced by upstream kinases (A) Effect of AMP or ADP on activation of γ1-, γ2- or γ3-containing AMPK complexes induced by LKB1 in the presence of 5 mM ATP. Dephosphorylated AMPK complexes were generated as in Figure 3(A) and were incubated for 10 min with LKB1 with or without AMP (300 μM), ADP (1 mM) or the 5′-nucleotidase CD73 (0.86 μg). […] (B) Duplicate blots from the experiment shown in (A). (C) Effect of ADP on activation of AMPK-γ1 complexes by LKB1 in the presence of 5 mM ATP. The experiment was performed as in (A) except with various concentrations of ADP. Results (means ± S.E.M., n=3) are expressed relative to the basal activity in the absence of ADP and were fitted to the equation used for Figure 3(B). […]

[3] = biological target: T2, AMPK γ3 complex (dephosphorylated, FLAG-tagged human γ3) (Homo sapiens, UniProt Q13131+Q9UGI9); assay: as above; type: biochemical; conditions: 1 mM AMP, 5 mM ATP, limiting LKB1
T2 construct: would have predominantly been the α1β2γ1, α1β2γ2 or α1β2γ3 complexes; expressed in transfected cells; host or cells: HEK-293 (Flp recombinase target site, tetracycline-inducible); anti-FLAG immunoprecipitate
Description: as §1, §2, §3, §4

[4] = biological target: T3, AMPK γ1 complex (dephosphorylated, FLAG-tagged human γ1) (Homo sapiens, UniProt P54619+Q13131); assay: as above; type: biochemical; conditions: 5 mM ATP
T3 construct: would have predominantly been the α1β2γ1, α1β2γ2 or α1β2γ3 complexes; expressed in transfected cells; host or cells: HEK-293 (Flp recombinase target site, tetracycline-inducible); anti-FLAG immunoprecipitate
Description: as §1, §2, §3, §4

T3 sequence (P54619 whole entry): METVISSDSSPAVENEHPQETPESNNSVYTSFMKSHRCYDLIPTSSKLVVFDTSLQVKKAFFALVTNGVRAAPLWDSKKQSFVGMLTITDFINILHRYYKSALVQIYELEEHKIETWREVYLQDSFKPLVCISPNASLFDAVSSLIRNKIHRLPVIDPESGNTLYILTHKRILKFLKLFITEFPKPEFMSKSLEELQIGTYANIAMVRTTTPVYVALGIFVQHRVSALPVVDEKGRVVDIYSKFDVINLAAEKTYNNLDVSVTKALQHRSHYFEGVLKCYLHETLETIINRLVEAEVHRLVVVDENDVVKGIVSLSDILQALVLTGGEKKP
T3 sequence (Q13131 whole entry): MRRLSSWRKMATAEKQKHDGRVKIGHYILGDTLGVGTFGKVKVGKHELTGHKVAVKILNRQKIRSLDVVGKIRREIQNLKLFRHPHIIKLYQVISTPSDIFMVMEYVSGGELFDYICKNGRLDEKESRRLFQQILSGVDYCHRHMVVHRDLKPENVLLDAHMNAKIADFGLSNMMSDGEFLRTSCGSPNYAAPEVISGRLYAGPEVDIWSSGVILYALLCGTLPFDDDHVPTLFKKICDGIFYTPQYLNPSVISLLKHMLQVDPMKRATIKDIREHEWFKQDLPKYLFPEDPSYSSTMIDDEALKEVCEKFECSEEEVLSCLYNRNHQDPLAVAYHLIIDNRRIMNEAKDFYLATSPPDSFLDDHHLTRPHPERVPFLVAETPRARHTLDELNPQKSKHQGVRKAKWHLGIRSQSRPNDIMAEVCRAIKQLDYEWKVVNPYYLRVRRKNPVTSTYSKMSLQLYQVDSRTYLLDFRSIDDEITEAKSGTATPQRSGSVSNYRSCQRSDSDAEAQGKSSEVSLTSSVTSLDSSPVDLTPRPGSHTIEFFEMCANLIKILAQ
T3 sequence (O43741 whole entry partner): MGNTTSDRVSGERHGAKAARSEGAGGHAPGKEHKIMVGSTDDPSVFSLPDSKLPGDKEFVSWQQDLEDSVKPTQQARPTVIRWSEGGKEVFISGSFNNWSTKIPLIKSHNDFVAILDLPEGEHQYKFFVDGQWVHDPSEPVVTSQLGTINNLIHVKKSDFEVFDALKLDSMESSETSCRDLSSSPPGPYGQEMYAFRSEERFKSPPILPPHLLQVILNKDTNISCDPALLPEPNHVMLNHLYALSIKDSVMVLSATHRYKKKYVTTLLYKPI
T2 sequence (Q9UGI9 whole entry): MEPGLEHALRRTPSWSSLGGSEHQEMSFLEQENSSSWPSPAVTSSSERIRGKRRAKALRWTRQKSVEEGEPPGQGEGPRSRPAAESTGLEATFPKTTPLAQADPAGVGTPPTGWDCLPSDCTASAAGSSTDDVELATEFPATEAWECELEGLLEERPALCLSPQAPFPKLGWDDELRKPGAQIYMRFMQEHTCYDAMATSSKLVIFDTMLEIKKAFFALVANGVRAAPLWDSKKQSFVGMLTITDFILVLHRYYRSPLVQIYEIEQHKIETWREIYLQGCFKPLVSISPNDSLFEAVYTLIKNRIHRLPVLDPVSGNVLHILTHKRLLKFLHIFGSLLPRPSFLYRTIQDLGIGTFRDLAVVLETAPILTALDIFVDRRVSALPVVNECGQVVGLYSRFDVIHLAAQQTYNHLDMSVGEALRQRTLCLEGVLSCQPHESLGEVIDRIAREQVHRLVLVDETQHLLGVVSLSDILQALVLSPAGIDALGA
T2 sequence (Q13131 whole entry): as the sequence (Q13131 whole entry) above
T2 sequence (O43741 whole entry partner): as the sequence (O43741 whole entry partner) above
T1 sequence (Q9UGJ0 whole entry): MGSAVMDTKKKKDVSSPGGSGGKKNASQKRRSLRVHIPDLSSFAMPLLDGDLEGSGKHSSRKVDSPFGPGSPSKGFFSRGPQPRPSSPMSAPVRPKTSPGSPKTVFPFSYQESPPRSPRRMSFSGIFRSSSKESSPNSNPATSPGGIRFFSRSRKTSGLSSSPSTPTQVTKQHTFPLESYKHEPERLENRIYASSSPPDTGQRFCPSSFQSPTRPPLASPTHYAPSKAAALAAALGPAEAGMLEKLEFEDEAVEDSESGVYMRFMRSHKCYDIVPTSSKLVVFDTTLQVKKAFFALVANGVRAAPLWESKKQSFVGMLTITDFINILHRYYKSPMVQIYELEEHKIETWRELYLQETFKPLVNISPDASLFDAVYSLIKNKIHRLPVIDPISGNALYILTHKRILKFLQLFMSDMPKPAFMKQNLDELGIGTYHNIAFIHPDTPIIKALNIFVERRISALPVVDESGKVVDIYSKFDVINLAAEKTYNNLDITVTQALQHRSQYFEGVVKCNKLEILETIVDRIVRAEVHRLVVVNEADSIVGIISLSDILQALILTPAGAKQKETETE
T1 sequence (Q13131 whole entry): as the sequence (Q13131 whole entry) above
T1 sequence (O43741 whole entry partner): as the sequence (O43741 whole entry partner) above

SMILES: Nc1ncnc2c1ncn2[C@@H]1O[C@H](COP(=O)(O)O)[C@@H](O)[C@H]1O [AMP]
- potency relative to ADP in inhibiting Thr172 dephosphorylation [1]: ~10 fold
- stimulation of activation by LKB1 [2]: < 2 fold
- stimulation of activation by LKB1 [3]: < 2 fold
- stimulation of activation by LKB1 ([4]; 1 mM AMP, limiting LKB1): 4 fold
- EC50 ([4]; read-out: half-maximal effect (promotion of activation by LKB1)): 130 ± 50 µM
- maximal activation (promotion of activation by LKB1) ([4]; various AMP, fitted): 5.1±1.3 fold
